Laboratory results: patent US10544113B2 (priority 2016, dated 2020)
Like-named read-outs stand apart in the source and are kept apart here.

Biological target: mu-opioid receptor (MOR) (Homo sapiens (Human), UniProt P35372)
Experiment: cell-based
Conditions: combined with a MOR antagonist; for AUC: AUC of [Ca2+]i fluorescence
Experimental: In an exemplary in vitro screening method for identifying antagonist-to-agonist allosteric modifiers of a MOR, cells that express a MOR are treated with a test compound and a MOR antagonist in a cellular calcium fluorescent assay and fluorescence intensity is then measured to determine whether the MOR is activated. A test compound is identified as an antagonist-to-agonist allosteric modifier of the MOR if the MOR is activated.
EC50 herein refers to the concentration of a compound that induces a response halfway between the baseline and the maximum after a specified exposure time. AUC refers to the area under the response curve, an indication of the compound's capability of activating a MOR when combined with a MOR antagonist.
Human embryonic kidney 293 (HEK-293) cells constitutively expressing MOR (HEK-MOR) and DOR (HEK-DOR) (kindly provided by Dr. Ping-Yee Law, University of Minnesota, USA) were cultured in high-glucose Dulbecco's modified Eagle's medium (DMEM, GIBCO) supplemented with 400 μg/mL G418 (Sigma), 2 mM L-glutamine and P/S/F (100 units/mL penicillin, 100 μg/mL streptomycin, 10% fetal bovine serum). Chinese hamster ovary (CHO)-K1 cells, stably expressing hMOR and Gα15 (CHO-K1/MOR/Gα15), were cultured in F12 medium (GIBCO) supplemented with 10 μg/mL Hygromycin B (Invivogen), 20 μg/mL Zeocin (Invivogen) P/S/F (100 units/mL penicillin, 100 μg/mL streptomycin, 10% fetal bovine serum). The cultures were incubated at 37° C. in a humidified 5% CO2 incubator.
One day before the assay, CORNING® black with clear flat bottom 96-well assay plates were coated with a 0.1 mg/mL Poly-L-Lysine solution. CHO-K1/MOR/Gα15 cells were suspended in the F12 medium and plated at a density of ˜8×10^4 cells/well in 200 μL medium. Cells were incubated in a humidified atmosphere of 10% CO2 at 37° C. overnight so as to reach an 80-90% confluent cell monolayer before assay. At the day of assay, 150 μL medium/well was removed from plate. To each well, 50 μL FLIPR® calcium assay reagent dissolved in 1× assay buffer (HBSS: KCl 5 mM, KH2PO4 0.3 mM, NaCl 138 mM, NaHCO3 4 mM, Na2HPO4 0.3 mM, d-glucose 5.6 mM, with additional 20 mM HEPES and 13 mM CaCl2, pH 7.4), with 2.5 mM probenecid was added and the plate was incubated at 37° C. for 1 h. Compounds and other reagents were dissolved in the assay buffer. Using a FlexStationIII (Molecular Devices Corp.), the [Ca^2+]i fluorescence increases after robotic injections of compounds or other reagents were monitored every 1.52 s interval with excitation wavelength at 485 nm and with emission wavelength at 525 nm. The [Ca^2+]i fluorescence was measured up to 90 s after agonist injection.
A CHO-K1 cell line, expressing a MOR and Gα15 (GenScript), was used to set up a sensitive high-throughput screen (HTS) system. In a FLIPR® calcium assay using CHO-K1/MOR/Gα15 cells, activation of MOR elicits an intracellular calcium release leading to an increase in the relative fluorescence units (FRU). […] The HTS was performed in the absence or presence of an opioid antagonist, naloxone (25 nM), to identify antagonist to agonist allosteric modifiers (AAM).
A CHO-K1 cell line, expressing a MOR and Gα15 (GenScript), was used to set up a sensitive assay system for detecting μ-opioid receptor activation. […] The assay was performed in the presence of an opioid antagonist, i.e., naloxone (25 nM), naltrexone (20 nM), samidorphan (10 nM), naloxonazine dihydrochloride (20 nM), β-funaltrexamine hydrochloride (20 nM), cyprodime hydrochloride (500 nM), or nalmefene (20 nM), in combination with compound 58, an antagonist to agonist allosteric modifier (AAM), to identify activation of the μ-opioid receptor.

Sequence of mu-opioid receptor (MOR) (P35372 whole entry): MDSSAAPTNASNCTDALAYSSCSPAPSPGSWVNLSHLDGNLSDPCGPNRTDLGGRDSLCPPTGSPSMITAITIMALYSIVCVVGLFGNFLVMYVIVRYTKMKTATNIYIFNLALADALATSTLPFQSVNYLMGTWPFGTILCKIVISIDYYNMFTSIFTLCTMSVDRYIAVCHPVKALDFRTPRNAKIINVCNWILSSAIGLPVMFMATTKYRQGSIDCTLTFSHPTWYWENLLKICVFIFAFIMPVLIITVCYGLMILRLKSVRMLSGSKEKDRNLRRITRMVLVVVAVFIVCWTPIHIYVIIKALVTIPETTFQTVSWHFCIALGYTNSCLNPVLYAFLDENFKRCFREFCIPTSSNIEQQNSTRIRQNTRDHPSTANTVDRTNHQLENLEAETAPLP

Compound	AUC (CHO-K1/MOR/Gα15 cells)	EC50 (EC50, CHO-K1/MOR/Gα15 cells) [µM]	FLIPR Ca^2+ AUC	EC50 (read-out: FLIPR Ca^2+ EC50) [µM]	EC50 (CHO-K1/MOR/Gα15 cells, read-out: EC50) [µM]
Cc1cc(C(=N)NO)ccc1N1C(=O)CSC1c1ccc(F)cc1 (stereo not shown) [Example 151]	more than 5000	< 10	10591	3.4	
CCOC(=O)c1ccc(N2C(=O)CSC2c2ccc(F)cc2)c(C)c1 (stereo not shown) [Example 152]	more than 5000		14743	6.3	< 10
CCOC(=O)c1ccc(N2C(=O)CSC2c2ccc(F)cc2)c(CC)c1 (stereo not shown) [Example 156]	more than 5000	< 10	11998	6.2	
C=Cc1cc(C(=O)O)ccc1N1C(=O)CSC1c1ccc(F)cc1 (stereo not shown) [Example 157]	more than 5000	< 10	5903	10	
CCCS(=O)(=O)NC(=O)c1ccc(N2C(=O)CSC2c2ccc(F)cc2)c(C)c1 (stereo not shown) [Example 160]	more than 5000	< 10	13549	4.3	
CCS(=O)(=O)NC(=O)c1ccc(N2C(=O)CSC2c2ccc(F)cc2)c(C)c1 (stereo not shown) [Example 162]	more than 5000	< 10	13767	9.1	
CCCCS(=O)(=O)NC(=O)c1ccc(N2C(=O)CSC2c2ccc(F)cc2)c(C)c1 (stereo not shown) [Example 163]	more than 5000	< 10	11389	1.2	
Cc1cc(C(=O)NS(=O)(=O)C(C)C)ccc1N1C(=O)CSC1c1ccc(F)cc1 (stereo not shown) [Example 165]	more than 5000		11927	22.6	
Cc1cc(C(=O)NS(=O)(=O)CC(C)C)ccc1N1C(=O)CSC1c1ccc(F)cc1 (stereo not shown) [Example 167]	more than 5000	< 10	9905	3.4	
Cc1cc(C(=O)NS(=O)(=O)C2CC2)ccc1N1C(=O)CSC1c1ccc(F)cc1 (stereo not shown) [Example 169]	more than 5000	< 10	13189	3	
Cc1cc(C(=O)NS(=O)(=O)C2CCCCC2)ccc1N1C(=O)CSC1c1ccc(F)cc1 (stereo not shown) [Example 171]	more than 5000	< 10	10272	3.7	
Cc1cc(C(=O)NS(N)(=O)=O)ccc1N1C(=O)CSC1c1ccc(F)cc1 (stereo not shown) [Example 173]			14841	5.3	
Cc1cc(C(=O)NS(=O)(=O)N(C)C)ccc1N1C(=O)CSC1c1ccc(F)cc1 (stereo not shown) [Example 174]			12074	3.8	
Cc1cc(C(=O)NS(=O)(=O)C(F)(F)F)ccc1N1C(=O)CSC1c1ccc(F)cc1 (stereo not shown) [Example 175]			13866	1.6	
Cc1cc(C(=O)NS(=O)(=O)Cc2ccccc2)ccc1N1C(=O)CSC1c1ccc(F)cc1 (stereo not shown) [Example 176]			10601	2	
Cc1cc(C(=O)NS(=O)(=O)Cc2cccc(F)c2)ccc1N1C(=O)CSC1c1ccc(F)cc1 (stereo not shown) [Example 177]			16276	2.2	
Cc1cc(C)cc(CS(=O)(=O)NC(=O)c2ccc(N3C(=O)CSC3c3ccc(F)cc3)c(C)c2)c1 (stereo not shown) [Example 179]	more than 5000	< 10	14442	1.1	
Cc1cc(C(=O)NS(=O)(=O)c2ccccc2)ccc1N1C(=O)CSC1c1ccc(F)cc1 (stereo not shown) [Example 183]	more than 5000	< 10	12230	1.9	
Cc1ccc(S(=O)(=O)NC(=O)c2ccc(N3C(=O)CSC3c3ccc(F)cc3)c(C)c2)cc1 (stereo not shown) [Example 185]			18048	0.6	
CCc1ccc(S(=O)(=O)NC(=O)c2ccc(N3C(=O)CSC3c3ccc(F)cc3)c(C)c2)cc1 (stereo not shown) [Example 186]			18048	0.6	
Cc1cc(C(=O)NS(=O)(=O)c2ccc(C#N)cc2)ccc1N1C(=O)CSC1c1ccc(F)cc1 (stereo not shown) [Example 187]			12927	3.3	
COc1ccc(S(=O)(=O)NC(=O)c2ccc(N3C(=O)CSC3c3ccc(F)cc3)c(C)c2)cc1 (stereo not shown) [Example 188]			21983	0.7	
Cc1cc(C(=O)NS(=O)(=O)c2ccc(OC(F)(F)F)cc2)ccc1N1C(=O)CSC1c1ccc(F)cc1 (stereo not shown) [Example 189]			9544	1.1	
CCOC(=O)c1ccc(S(=O)(=O)NC(=O)c2ccc(N3C(=O)CSC3c3ccc(F)cc3)c(C)c2)cc1 (stereo not shown) [Example 190]			16512	2.4	
Cc1cc(C)c(S(=O)(=O)NC(=O)c2ccc(N3C(=O)CSC3c3ccc(F)cc3)c(C)c2)c(C)c1 (stereo not shown) [Example 192]	more than 5000	< 10	11866	1.4	
Cc1cc(C(=O)NS(=O)(=O)c2cccc(F)c2)ccc1N1C(=O)CSC1c1ccc(F)cc1 (stereo not shown) [Example 194]	more than 5000	< 10	19019	0.2	
Cc1cc(C(=O)NS(=O)(=O)c2ccc(F)cc2)ccc1N1C(=O)CSC1c1ccc(F)cc1 (stereo not shown) [Example 196]	more than 5000	< 10	15620	1.1	
Cc1cc(C(=O)NS(=O)(=O)c2ccc(Cl)cc2)ccc1N1C(=O)CSC1c1ccc(F)cc1 (stereo not shown) [Example 198]	more than 5000	< 10	13313	0.5	
Cc1cc(C(=O)NS(=O)(=O)c2ccc(Br)cc2)ccc1N1C(=O)CSC1c1ccc(F)cc1 (stereo not shown) [Example 200]	more than 5000	< 10	12340	0.2	
CC(=O)Nc1ccc(S(=O)(=O)NC(=O)c2ccc(N3C(=O)CSC3c3ccc(F)cc3)c(C)c2)cc1 (stereo not shown) [Example 202]	more than 5000	< 10	17087	0.6	
